Assay results reported in ChEMBL document CHEMBL1697781, “Assessment of the health effects of chemicals in humans: II. Construction of an adverse effects database for QSAR modeling” (Curr Drug Discov Technol, 2004).

Legend:
Settings in all cases: human; call rule not given here
[1] = test system: Hepatotoxicity; assay: FDA HLAED, serum glutamic oxaloacetic transaminase (SGOT) increase
[2] = test system: Hepatotoxicity; assay: FDA HLAED, liver enzyme composite activity
[3] = test system: Hepatotoxicity; assay: FDA HLAED, gamma-glutamyl transferase (GGT) increase
[4] = test system: Hepatotoxicity; assay: FDA HLAED, alkaline phosphatase increase
[5] = test system: Hepatotoxicity; assay: FDA HLAED, lactate dehydrogenase (LDH) increase
[6] = test system: Hepatotoxicity; assay: FDA HLAED, serum glutamic pyruvic transaminase (SGPT) increase
Throughout, for GGT Increase - Index Value: reference of the scale not given here.
Throughout, for LDH Increase - Index Value: reference of the scale not given here.

Row | Structure (SMILES) | SGOT Increase - Activity Score [1] | SGOT Increase - Index Value [1] | SGOT Increase - Number of Reports [1] | GGT Increase - Activity Score [3] | GGT Increase - Index Value [3] | GGT Increase - Number of Reports [3] | Alkaline Phosphatase Increase - Activity Score [4] | Alkaline Phosphatase Increase - Index Value [4] | Alkaline Phosphatase Increase - Number of Reports [4] | LDH Increase - Activity Score [5] | LDH Increase - Index Value [5] | LDH Increase - Number of Reports [5] | SGPT Increase - Activity Score [6] | SGPT Increase - Index Value [6] | SGPT Increase - Number of Reports [6] | Composite Activity - Active [2] | Composite Activity - Marginal [2] | Composite Activity - Score [2] | also measured
1 | Clc1ccc2nsnc2c1NC1=NCCN1 [TIZANIDINE] | Inactive | 16.5 | < 4 | Inactive | 8.3 | < 4 | Inactive | 8.3 | < 4 | Inactive | 8.3 | < 4 | Active | 24.8 | < 4 |  |  |  | Composite Activity - Active ([2]; Liver): 1; Composite Activity - Marginal ([2]; Liver): 0; Composite Activity - Score ([2]; Liver): Inactive
2 | Cc1cccc(C)c1NC(=O)C(C)N (stereo unspecified) [TOCAINIDE] | Marginally Active | 3.5 | >= 4 | Inactive | 0 | < 4 | Inactive | 1.7 | >= 4 | Inactive | 1.7 | >= 4 | Inactive | 2.2 | >= 4 | 0 | 1 | Inactive | 
3 | CC1(C)O[C@@H]2[C@@H](CO[C@@]3(COS(N)(=O)=O)OC(C)(C)O[C@@H]23)O1 [TOPIRAMATE] | Inactive | 0 | < 4 | Inactive | 0 | < 4 | Inactive | 3.5 | < 4 | Inactive | 0 | < 4 | Inactive | 0 | < 4 | 0 | 0 | Inactive | 
4 | CC[C@@]1(O)C(=O)OCc2c1cc1n(c2=O)Cc2cc3c(CN(C)C)c(O)ccc3nc2-1 [TOPOTECAN] | Inactive | 0 | < 4 | Inactive | 11.6 | < 4 | Inactive | 0 | < 4 | Inactive | 11.6 | < 4 | Inactive | 0 | < 4 | 0 | 0 | Inactive | 
5 | Cc1cccc(Nc2ccncc2S(=O)(=O)NC(=O)NC(C)C)c1 [TORSEMIDE] | Inactive | 0.5 | < 4 | Inactive | 0 | < 4 | Inactive | 0 | < 4 | Inactive | 0 | < 4 | Inactive | 0.5 | < 4 | 0 | 0 | Inactive | 
6 | COc1cccc(C2(O)CCCCC2CN(C)C)c1 (stereo unspecified) [TRAMADOL] | Inactive | 0.5 | >= 4 | Inactive | 0.2 | < 4 | Inactive | 0.1 | < 4 | Inactive | 0.6 | >= 4 | Inactive | 0.8 | >= 4 | 0 | 0 | Inactive | 
7 | CCOC(=O)[C@H](CCc1ccccc1)N[C@@H](C)C(=O)N1[C@H](C(=O)O)C[C@H]2CCCC[C@@H]21 [TRANDOLAPRIL] | Inactive | 7 | < 4 | Inactive | 0 | < 4 | Inactive | 0 | < 4 | Inactive | 0 | < 4 | Marginally Active | 10.5 | < 4 | 1 | 0 | Inactive | 
8 | O=c1n(CCCN2CCN(c3cccc(Cl)c3)CC2)nc2ccccn12 [TRAZODONE] | Inactive | 0.3 | < 4 | Inactive | 0 | < 4 | Inactive | 0.2 | < 4 | Inactive | 0.3 | < 4 | Inactive | 0 | < 4 | 0 | 0 | Inactive | 
9 | CC1=C(/C=C/C(C)=C/C=C/C(C)=C/C(=O)O)C(C)(C)CCC1 [TRETINOIN] | Inactive | 0 | < 4 | Inactive | 1 | < 4 | Inactive | 1 | < 4 | Inactive | 1 | < 4 | Inactive | 0 | < 4 | 0 | 0 | Inactive | 
10 | Cc1nnc2n1-c1ccc(Cl)cc1C(c1ccccc1Cl)=NC2 [TRIAZOLAM] | Inactive | 0.3 | < 4 | Inactive | 0 | < 4 | Inactive | 0.4 | < 4 | Inactive | 0 | < 4 | Inactive | 0 | < 4 | 0 | 0 | Inactive | 
11 | NCCNCCNCCN [TRIENTINE] | Inactive | 69.4 | < 4 | Inactive | 0 | < 4 | Inactive | 0 | < 4 | Inactive | 0 | < 4 | Inactive | 69.4 | < 4 |  |  |  | Composite Activity - Active ([2]; Liver): 0; Composite Activity - Marginal ([2]; Liver): 0; Composite Activity - Score ([2]; Liver): Inactive
12 | O=c1[nH]c(=O)n([C@H]2C[C@H](O)[C@@H](CO)O2)cc1C(F)(F)F [TRIFLURIDINE] | Inactive | 0 | < 4 | Inactive | 0 | < 4 | Inactive | 0 | < 4 | Inactive | 0 | < 4 | Inactive | 0 | < 4 | 0 | 0 | Inactive | 
